Results published in patent publication US9353075B2, “Disubstituted beta-lactones as inhibitors of N-acylethanolamine acid amidase (NAAA)” (The Regents of the University of California, priority 2011, dated 2016).
Like-named read-outs stand apart in the source and are kept apart here.

Legend:
[1] = Chemical stability in PBS buffer pH 7.4; type: physicochemical; settings: phosphate-buffered saline, 0.01M PBS pH 7.4, 37° C., read-out: Stability in PBS buffer, pH 7.4 t1/2
Description: Chemical stability of select compounds was evaluated under physiological pH conditions (0.01M Phosphate-Buffered Saline, pH 7.4) for up to 24 h. Stock solutions of each compound (10 mM) were prepared freshly in DMSO. Each compound was incubated at a final concentration of 10 μM (1% DMSO) in pre-heated buffer (0.01M Phosphate-Buffered Saline (PBS), pH 7.4 at 37° C.). The sample solutions were divided into aliquots in glass vials (pre-heated at 37° C.) for each time point. The samples were maintained at 37° C. in the UPLC/MS Autosampler during the study (no shaking). A reference solution of each compound (final concentration: 10 μM at 1% DMSO) in pre-heated CH3CN (37° C.) was prepared from the stock solutions (10 mM in DMSO). The reference solutions were maintained at 37° C. in the UPLC/MS Autosampler during the study (no shaking). An internal standard (100 nM) was added to the sample and reference solutions. For each time point, the samples were analyzed directly by LC/MS without any further sample preparation. The samples were analyzed (triplicate injection) by monitoring the MS trace by Multiple Reaction Monitoring (MRM). The compound concentration (expressed as %) was calculated by dividing the peak area at each time point by the peak area at t=0 min. The reference solution was analyzed at the beginning (t=0 min.), and at the end of the study (t=24 h). The apparent half-lives (t1/2) of the disappearance of compound were calculated by a one-phase decay equation using a non-linear regression of compound concentration versus time.
The analyses were performed on a Waters ACQUITY UPLC/MS TQD system consisting of a TQD (Triple Quadropole Detector) Mass Spectrometer equipped with an Electrospray Ionization interface and a Photodiode Array Detector. The analyses were run on an ACQUITY UPLC BEH C18 1.7 μm 2.1×50 mm column with a VanGuard BEH C18 1.7 μm pre-column at 40° C. The mobile phase was 0.1% HCOOH in H2O (A) and 0.1% HCOOH in CH3CN (B) using a linear gradient: 0-0.2 min.: 5% B, 0.2-2.2 min.: 5-95% B, 2.2-2.3 min.: 95-5% B, 2.3-3 min.: 5% B with flow rate at 0.5 mL/min. […]

Acid Ceramidase (AC) = Acid Ceramidase (AC) (Rattus norvegicus (Rat), UniProt Q6P7S1); assay: Acid ceramidase inhibition, recombinant rat AC, LC-MS; type: biochemical; settings: read-out: r-AC % inhib. @ 10 μM
Chain of Acid Ceramidase (AC) (Q6P7S1 21-394): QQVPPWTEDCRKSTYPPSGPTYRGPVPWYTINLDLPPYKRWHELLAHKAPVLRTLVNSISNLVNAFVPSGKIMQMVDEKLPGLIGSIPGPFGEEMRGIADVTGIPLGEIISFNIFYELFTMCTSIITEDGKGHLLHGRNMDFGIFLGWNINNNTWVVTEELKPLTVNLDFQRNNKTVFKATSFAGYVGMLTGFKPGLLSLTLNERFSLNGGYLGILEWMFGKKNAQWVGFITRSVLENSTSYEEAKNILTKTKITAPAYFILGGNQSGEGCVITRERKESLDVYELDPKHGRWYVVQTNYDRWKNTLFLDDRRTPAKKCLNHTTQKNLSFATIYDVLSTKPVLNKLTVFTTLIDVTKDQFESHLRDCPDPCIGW

[2] = tested on: skin integrity (ear thickness, histopathology); settings: in vivo
Description: The methods included the following. Drug or vehicle were given topical to both ears of CD1 mice for 14 days. Ear thickness was determined by using a micrometer. Histopathological analyses were conducted on formalin-fixed, paraffin-embedded ear sections […] thick and stained with Hematoxylin-Eosin. Epidermal thickness was measured with standard morphometric methods from 12 different samplings spanning the treated area of each ear. Data were analysed by ANOVA followed by Bonferroni's test for multiple comparisons.

[3] = tested on: 48/80-induced scratching (mast cell degranulation); assay: Compound 48/80-induced scratching in mice; type: in vivo, mouse; settings: topical, single dose
Description: The methods include the following. Itching in mice was induced with DNFB as previously described. Additional studies were done with 48/80 model (an inducer of mast cell degranulation). 48/80 was given subcutaneously (30 mg per kg).

- half-life at 10 μM [1]: 1.7 h
- inhibition at 10 µM (Acid Ceramidase (AC)): < 10%
- Skin atrophy (decrease of ear thickness) ([2]; CD1, mouse, 14 days): but not compound 6, causes skin atrophy
- Cellular architecture, histopathological and morphometric analysis ([2]; mouse): no alterations of cellular structure
- Skin atrophy (decrease of ear thickness) ([2]; mouse): did not affect skin integrity
SMILES: C[C@@H]1OC(=O)[C@@H]1NC(=O)OCCCCCc1ccccc1 [Example 6, 5-phenylpentyl-[(2S,3R)-2-methyl-4-oxooxetan-3-yl]-carbamate]
- Cellular architecture, histopathological and morphometric analysis ([2]; CD1, mouse, 14 days): but not compound 6, altered cellular architecture
- Dose of maximal effect, 48/80-induced scratching [3]: 1%
- Lowest effective dose, 48/80-induced scratching [3]: 0.01%
- 48/80-induced scratching ([3]; 48/80 30 mg per kg s.c.): prevents 48/80-induced scratching
